Entries after “also recorded” stand apart in the source; their conditions may differ.
What was measured:
[1] = test system: uninfected human T-lymphoid cell-line, H-9; test: Viability and growth of uninfected H-9 cells (trypan-blue exclusion); type: cell-based; details: for cell viability (percentage of viable cells): through 6 days of incubation
Procedure: Every two or three days, 50-80% of cell suspensions were removed, and the same amount of fresh medium, with the same concentrations of the compound to be analyzed were added for further incubation. At the same time-points, viable cells were counted for calculating the relative cell growth value, by the trypan-blue exclusion method. At the same time, cell viability was also monitored as the percentage of viable cells in the total cell population.

[2] = test system: HIV-1 production of H-9/IIIB cells; test: HIV-1 p24 antigen production from H-9/IIIB cells at 1.25 or 2.5 mM (ELISA); type: cell-based, HIV-1 (HIV-1IIIB); details: for HIV-1 production (p24 antigen) from H-9/IIIB cells: days two and four; for production of HIV-1 from chronically infected cells: high doses, up to a concentration of 2.5 mM
Procedure: H-9/IIIB cells were washed thoroughly with phosphate-buffered saline (PBS) and resuspended at a density of 1×10^5 /ml in RPMI-1640/10% FBS with or without 1.25 or 2.5 mM of γ-GCE, GSH, or NAC. Since H-9/IIIB cells are constantly producing a large quantity of virus particles, stimulation with factors such as TNF-α or PMA were not required for carrying out these experiments. After two and four days, culture supernatant was removed, centrifuged to remove cells and debris, and evaluated by HIV-1 p24 antigen quantification. Measurement of the HIV-1 p24 antigen was performed by a sensitive enzyme-linked immunosorbant assay (ELISA) (DuPont).

[3] = test system: HIV-1 virus stock (NL4-3); test: Direct inactivation of HIV-1 by pre-incubation, then acute infection of H9 cells; type: cell-based, HIV-1 (NL4-3); details: for infectivity of HIV-1 after pre-incubation: 4 hours at 37° C., no viral production 15 days post-infection
Procedure: An HIV-1 virus stock (NL4-3) containing 6 ng of HIV-1 p24 antigen was pre-incubated in the presence or absence of γ-GCE in 20 ml of RPMI-1640/10% FBS for 4 hr at 37° C. Afterwards, acute infection of H9 cells were carried out, using […] of each pretreated virus suspension into 1 ml of the cell suspension without γ-GCE, as described in the previous subsection. Sampling and maintenance of cell culture were also performed, following the same procedure as described in the previous subsection, without adding any γ-GCE through passage.

[4] = test system: H-9/IIIB cells (H-9 cells infected with HIV-1IIIB); test: Viability and growth of chronically HIV-1-infected H-9/IIIB cells (trypan-blue exclusion); type: cell-based, human
Procedure: The uninfected human T-lymphoid cell-line, H-9, or H-9 cells infected with an HIV-1 strain, HIV-1IIIB (H-9/IIIB) (Science 1984; 224:497-500), were seeded in 24 or 96 well tissue culture plates at a density of 2-2.5×10^5 /ml and maintained in RPMI-1640 tissue culture medium supplemented with 10% fetal bovine serum (FBS), with or without a variety of concentrations of γ-GCE, GSH, or NAC. Every two or three days, 50-80% of cell suspensions were removed, and the same amount of fresh medium, with the same concentrations of the compound to be analyzed were added for further incubation. At the same time-points, viable cells were counted for calculating the relative cell growth value, by the trypan-blue exclusion method. At the same time, cell viability was also monitored as the percentage of viable cells in the total cell population. […]

[5] = test system: HIV-1 production of H-9/IIIB cells; test: HIV-1 p24 antigen production from H-9/IIIB cells at low, non-toxic doses; type: cell-based, HIV-1 (HIV-1IIIB); details: for HIV-1 production (p24 antigen) of H-9/IIIB cells: days three and six
Procedure: H-9/IIIB cells were washed with PBS and seeded at a density of 2×10^5 /ml in RPMI-1640/10% FBS with or without 0.2or 0.4 mM of γ-GCE. Three and six days after initiation of experiments, culture supernatants were sampled and assayed, as described above. On day three, 72% of each cell suspension was removed, and fresh medium with a corresponding GSH pro-drug was added. Total HIV-1 p24 antigen production values on day six were deduced by multiplying raw values, on day six, with the dilution factor on day three.

[6] = test system: HIV-1 strain NL-4-3 in H-9 cells; test: Acute HIV-1 infection of H-9 cells; type: cell-based, HIV-1 (NL4-3)
Procedure: Virus stocks of the HIV-1NL4-3strain were prepared and titered as described previously (Hum Gene Ther 1995; 6: 1561-1571). H-9 cells (3×10^5cells.) were suspended in 1 ml of growth medium with or without γ-GCE at a variety of concentrations, and seeded in a chamber of a 24-well tissue culture plate. Virus suspension containing 30 pg of HIV-1 p24 antigen was added to each chamber, for the initial infection. Infection was carried out overnight at 37° C., then the cells were washed once with PBS, and once more with growth medium. The supernatant of the final wash was saved as a day 0 time-point. Washed cells were resuspended with corresponding media for further incubation at 37° C. Once in three days, cell suspensions and supernatants were harvested for cell counting and HIV-1 p24 antigen quantification. Measurement of cell growth, viability, and virus production were performed as described in a previous subsection. On the days of harvest, 200 μl of cell suspension was left in each well, and 800 μl of fresh medium with corresponding concentrations of γ-GCE was added to support cell growth, except day 18, on which 400 μl of cell suspension was left and 600 μl of medium was added to each well. Cell numbers at each time-point were determined accordingly, based on the accumulation of dilution factors along with the frequency of passage.

[7] = some decrease in relative cell growth, minimal decrease in viability after 6 days

N[C@@H](CCC(=O)N[C@@H](CS)C(=O)NCC(=O)O)C(=O)O [GSH, glutathione]
effect on cell viability and growth of uninfected H-9 cells ([1]; 2.5 mM): no negative effects on growth | cell viability (percentage of viable cells) ([1]; uninfected H-9 cells, 2.5 mM): ≥ 90% | HIV-1 production (p24 antigen) from H-9/IIIB cells ([2]; 1.25 mM): neither GSH (triangles) nor NAC (rectangles) can overwhelm the vigorous HIV-1 production; also recorded: Neither GSH nor NAC could overwhelm the vigorous HIV-1 production; also recorded: did not alter viral expression | HIV-1 production (p24 antigen) from H-9/IIIB cells ([2]; 2.5 mM): increased the virus production | production of HIV-1 from chronically infected cells [2]: neither GSH nor other GSH precursors show inhibitory effects

CC(=O)N[C@@H](CS)C(=O)O [NAC, N-acetylcysteine]
effect on cell viability and growth of uninfected H-9 cells ([1]; 2.5 mM): no negative effects on growth | cell viability, lowest value ([1]; uninfected H-9 cells, 2.5 mM, Day 4): 91.75±0.45% | cell viability (percentage of viable cells) ([1]; uninfected H-9 cells, 2.5 mM): ≥ 90% | HIV-1 production (p24 antigen) from H-9/IIIB cells ([2]; 1.25 mM): neither GSH (triangles) nor NAC (rectangles) can overwhelm the vigorous HIV-1 production; also recorded: Neither GSH nor NAC could overwhelm the vigorous HIV-1 production; also recorded: did not alter viral expression | HIV-1 production (p24 antigen) from H-9/IIIB cells ([2]; 2.5 mM): increased the virus production

CCOC(=O)[C@H](CS)NC(=O)CC[C@H](N)C(=O)O [γ-GCE, γ-L-glutamyl-L-cysteine ethyl ester]
effect on cell viability and growth of uninfected H-9 cells ([1]; 2.5 mM): unaffected; also recorded: no negative effects on cell viability and growth | concentration giving equivalent cytotoxic profile on H-9 cells [1, 7]: ~5000 µM | cell viability (percentage of viable cells) ([1]; uninfected H-9 cells, 2.5 mM): ≥ 90% | propagation of HIV-1 in H-9 cells after pre-incubation of virus ([3]; 625 μM, 4 hours): only some delay of the onset | infectivity of HIV-1 after pre-incubation ([3]; 1.25 mM): completely inactivates; also recorded: loss of infectivity | infectivity of HIV-1 after pre-incubation ([3]; 2.5 mM): completely inactivates; also recorded: loss of infectivity | time in which infectivity of HIV-1 is directly inhibited ([3]; relatively high doses): within four hours | viral infectivity after pre-incubation ([3]; same concentrations (625 μM-2.5 mM), one hour, data not illustrated): did not show significant interference | HIV-1 production (p24 antigen) from H-9/IIIB cells ([2]; 1.25 mM): almost completely shut-off | HIV-1 production (p24 antigen) from H-9/IIIB cells ([2]; 2.5 mM): almost completely shut-off | production of HIV-1 from chronically infected cells [2]: potently inhibits the production of HIV-1 | discrepancy of the thresholds of the toxic doses between infected and uninfected cells [4]: more than ten-fold | cell viability of H-9/IIIB cells ([4]; 200 μM and 400 μM (either dose)): > 86% | cell growth of H-9/IIIB cells ([4]; 400 μM): Slower cell growth | cell growth of H-9/IIIB cells ([4]; 800 μM): dramatically impairs growth; also recorded: dramatically impaired | cell growth of H-9/IIIB cells ([4]; 800 μM, after 12 days of treatment): no significant cell growth | sensitivity of H-9/IIIB cells to γ-GCE relative to uninfected cells (selective toxicity) ([4]; 5 mM on H-9 vs 400 μM on H-9/IIIB, equivalent cytotoxic profiles): approximately 12.5 times | cell growth relative to control ([4]; H-9/IIIB, 800 μM, day six): less than 40 % of the control | concentration giving equivalent cytotoxic profile on H-9/IIIB cells [4, 7]: ~400 µM | HIV-1 production (p24 antigen) of H-9/IIIB cells ([5]; 200 μM): significantly inhibited | HIV-1 production (p24 antigen) of H-9/IIIB cells ([5]; 400 μM): significantly inhibited | viral production from chronically HIV1-expressing cells ([5]; lower concentrations (200-400 μM), viability not affected): significantly represses | propagation of HIV-1 (total HIV-1 p24 antigen) ([6]; 1.6 mM, 21 days postinfection): completely blocked | syncytia-formation ([6]; 1.6 mM, data not illustrated): not significantly observed | growth and viability of HIV-1-inoculated H-9 cells ([6]; 1.6 mM, entire experiments): continued to grow actively, maintaining high viability | acute infection (total HIV-1 p24 antigen) ([6]; 400-800 μM): not inhibited significantly | propagation of HIV-1 in acute infection of T-lymphocytic cells ([6]; relatively high doses): entirely blocked

— patent publication US6251868A, “Method for treating a human immunodeficiency virus infection” (Teijin Limited, priority 1998, dated 2001)
